PMC10268634 (ACS Omega, 2023)

Experiments:
[1] = DPPH radical scavenging; settings: for IC50: read-out: DPPH (IC50 value in μM)
[2] = target: T1, α-amylase (Homo sapiens, UniProt P04746); assay: biochemical
T1 sequence (P04746 16-511): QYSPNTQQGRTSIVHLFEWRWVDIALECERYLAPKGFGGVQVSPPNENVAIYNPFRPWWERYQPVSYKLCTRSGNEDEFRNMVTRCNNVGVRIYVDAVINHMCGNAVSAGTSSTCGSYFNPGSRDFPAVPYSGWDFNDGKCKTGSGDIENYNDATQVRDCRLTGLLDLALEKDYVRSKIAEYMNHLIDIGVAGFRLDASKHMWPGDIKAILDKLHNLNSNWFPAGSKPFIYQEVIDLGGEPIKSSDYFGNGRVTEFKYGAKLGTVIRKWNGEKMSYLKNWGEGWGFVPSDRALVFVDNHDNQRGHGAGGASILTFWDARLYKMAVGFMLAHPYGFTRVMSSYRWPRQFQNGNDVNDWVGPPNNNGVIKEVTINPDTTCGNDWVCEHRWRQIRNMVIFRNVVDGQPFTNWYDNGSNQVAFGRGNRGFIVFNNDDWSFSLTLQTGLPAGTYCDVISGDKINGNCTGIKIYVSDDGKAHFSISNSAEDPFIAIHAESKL

Structure (SMILES)	DPPH (IC50 value in μM) [1]	IC50 [1] [µM]	IC50 [2] [µM]
CC(=O)N1N=C(c2ccccc2)CC1c1ccccc1O (stereo not drawn) [Compound 1, 1-(5-(2-Hydroxyphenyl)-3-phenyl-4,5-dihydro-1H-pyrazol-1-yl)ethanone]	potential antioxidant activity	84.2	188
CC(=O)N1N=C(c2ccccc2)CC1c1ccco1 (stereo not drawn) [Compound 2, 1-(5-(Furan-2-yl)-3-phenyl-4,5-dihydro-1H-pyrazol-1-yl)ethanone]	potential antioxidant activity	85.1	301
CC(=O)N1N=C(c2ccccc2)CC1c1cccc([N+](=O)[O-])c1 (stereo not drawn) [Compound 3, 1-(5-(3-Nitrophenyl)-3-phenyl-4,5-dihydro-1H-pyrazol-1-yl)ethanone]	–	205	604
CC(=O)N1N=C(c2ccccc2)CC1c1ccccn1 (stereo not drawn) [Compound 4, 1-(3-Phenyl-5-(pyridin-2-yl)-4,5-dihydro-1H-pyrazol-1-yl)ethanone]	–	914	663
CC(=O)N1N=C(c2ccccc2)CC1c1ccc(C)cc1 (stereo not drawn) [Compound 5, 1-(3-Phenyl-5-(p-tolyl)-4,5-dihydro-1H-pyrazol-1-yl)ethanone]	potential antioxidant activity	30	35.5
COc1ccc(C2=NN(C(C)=O)C(c3ccco3)C2)cc1 (stereo not drawn) [Compound 6, 1-(5-(Furan-2-yl)-3-(4-methoxyphenyl)-4,5-dihydro-1H-pyrazol-1-yl)ethanone]	–	554	811
CC(=O)N1N=C(c2ccc(O)cc2)CC1c1ccccn1 (stereo not drawn) [Compound 7, 1-(3-(4-Hydroxyphenyl)-5-(pyridin-2-yl)-4,5-dihydro-1H-pyrazol-1-yl)ethanone]	potential antioxidant activity	69	196
CC(=O)N1N=C(c2ccc(O)cc2)CC1c1ccco1 (stereo not drawn) [Compound 8, 1-(5-(Furan-2-yl)-3-(4-hydroxyphenyl)-4,5-dihydro-1H-pyrazol-1-yl)ethanone]	potential antioxidant activity	106	1.07
CC(=O)N1N=C(c2ccc(O)cc2)CC1c1cccc([N+](=O)[O-])c1 (stereo not drawn) [Compound 9, 1-(3-(4-Hydroxyphenyl)-5-(3-nitrophenyl)-4,5-dihydro-1H-pyrazol-1-yl)ethanone]	–	161	632
CC(=O)N1N=C(c2ccc(O)cc2)CC1c1ccc(N(C)C)cc1 (stereo not drawn) [Compound 10, 1-(5-(4-(Dimethylamino)phenyl)-3-(4-hydroxyphenyl)-4,5-dihydropyrazol-1-yl)ethanone]	potential antioxidant activity	41.1	388

Second part, the compound after the results:

DPPH (IC50 value in μM) [1]	IC50 [1] [µM]	IC50 [2] [µM]	Structure (SMILES)
potential antioxidant activity	53.5	0.551	COc1ccc(C2CC(c3ccc(O)cc3)=NN2C(C)=O)cc1 (stereo not drawn) [Compound 11, 1-(3-(4-Hydroxyphenyl)-5-(4-methoxyphenyl)-4,5-dihydro-1H-pyrazol-1-yl)ethanone]
potential antioxidant activity	151	400	CC(=O)N1N=C(c2ccc(O)cc2)CC1c1ccc(C)cc1 (stereo not drawn) [Compound 12, 1-(3-(4-Hydroxyphenyl)-5-(p-tolyl)-4,5-dihydro-1H-pyrazol-1-yl)ethanone]
potential antioxidant activity	131	–	COc1ccc(C2CC(c3ccc(Cl)cc3)=NN2C(C)=O)cc1 (stereo not drawn) [Compound 13, 1-(3-(4-Chlorophenyl)-5-(4-methoxyphenyl)-4,5-dihydro-1H-pyrazol-1-yl)ethanone]
–	179	–	CC(=O)N1N=C(c2ccc(Cl)cc2)CC1c1ccc(C)cc1 (stereo not drawn) [Compound 14, 1-(3-(4-Chlorophenyl)-5-(p-tolyl)-4,5-dihydro-1H-pyrazol-1-yl)ethanone]
–	383	425	CC(=O)N1N=C(c2ccc(Cl)cc2)CC1c1cccs1 (stereo not drawn) [Compound 15, 1-(3-(4-Chlorophenyl)-5-(thiophen-2-yl)-4,5-dihydro-1H-pyrazol-1-yl)ethanone]
–	56.3	62.5	COc1ccc(C2CC(c3ccc(Cl)cc3)=NN2C(C)=O)cc1O (stereo not drawn) [Compound 16, 1-(3-(4-Chlorophenyl)-5-(3-hydroxy-4-methoxyphenyl)-4,5-dihydropyrazol-1-yl)ethanone]
–	160	315	CC(=O)N1N=C(c2ccc(Cl)cc2)CC1c1cccc(O)c1 (stereo not drawn) [Compound 17, 1-(3-(4-Chlorophenyl)-5-(3-hydroxyphenyl)-4,5-dihydropyrazol-1-yl)ethanone]
–	199	281	CC(=O)N1N=C(c2ccc(Cl)cc2)CC1c1ccccn1 (stereo not drawn) [Compound 18, 1-(3-(4-Chlorophenyl)-5-(pyridin-2-yl)-4,5-dihydro-1H-pyrazol-1-yl)ethanone]
–	172	–	CC(=O)N1N=C(c2ccc(Cl)cc2)CC1c1ccccc1 (stereo not drawn) [Compound 19, 1-(3-(4-Chlorophenyl)-5-phenyl-4,5-dihydro-1H-pyrazol-1-yl)ethanone]
potential antioxidant activity	99.6	590	CC(=O)N1N=C(c2ccc(Cl)cc2)CC1c1ccccc1O (stereo not drawn) [Compound 20, 1-(3-(4-Chlorophenyl)-5-(2-hydroxyphenyl)-4,5-dihydro-1H-pyrazol-1-yl)ethanone]
–	580	262	CC(=O)N1N=C(c2ccc(Cl)cc2)CC1c1ccco1 (stereo not drawn) [Compound 21, 1-(3-(4-Chlorophenyl)-5-(furan-2-yl)-4,5-dihydro-1H-pyrazol-1-yl)ethanone]
–	220	61.5	CC(=O)N1N=C(c2ccc(Cl)cc2)CC1c1cccc([N+](=O)[O-])c1 (stereo not drawn) [Compound 22, 1-(3-(4-Chlorophenyl)-5-(3-nitrophenyl)-4,5-dihydro-1H-pyrazol-1-yl)ethanone]
